Data from patent US20020169154A1, “Novel methods and compositions involving trk tyrosine kinase inhibitors and antineoplastic agents” (Cephalon, Inc., priority 2001, published 2002).

Test system: human pancreatic ductal adenocarcinoma (PDAC) xenografts (Colo-357)
Test: Survival of nude mice with orthotopically implanted human PDAC xenografts
Format: in vivo
Conditions: orthotopic PDAC, female nu/nu mice, (I-a-ii) 10 mg/kg/dose s.c. BID five days a week, gemcitabine 100 mg/kg/dose i.p. twice per week, combination: both regimens; for mean survival time (days of dosing to death): vehicle 58, untreated 55 days
Protocol: The compound of formula (I-a-ii) was formulated at 3.44 mg/mil in a vehicle of 40% polyethylene glycol (PEG) 1000 (Spectrum, Los Angeles, Calif.), 10% povidone C30 (ISP, Boudbrook, N.J.), and 2% benzyl alcohol (Specturm, Los Angeles, Calif.) in sterile injectable water.
Gemcitabine HCl (Gemzar) was obtained from Eli Lilly and Co. (Indianapolis, Ind.) as a sterile, lyophilized powder formulated with mannitol and sodium acetate, and resuspended to a concentration of 1.0 mg/ml with 0.9% sodium chloride, pH 7.0. Solutions of gemcitabine were freshly prepared for each day of dosing and filter sterilized prior to administration.
Human pancreatic ductal adenocarcinoma (PDAC) xenografts were obtained from the left flanks of nude mice that had been injected with 2×10^6 Colo-357 human pancreatic carcinoma cells. Colo-357 human PDAC cells were obtained from the American Type Culture Collection (ATCC) and grown to subconfluency in Minimal Essential Medium supplemented with 10% fetal bovine serum and 1% penicillin/streptomycin. Cells were MAP and mycoplasma tested by a commercial laboratory (Bio Reliance Corp.) prior to use. Xenograft tumors were harvested and carefully sectioned into 2×2 mm^2 fragments in a laminar flow hood using sterile technique (PNAS 89:5645-49, 1992; Cancer Res. 55:4670-75, 1995). Netrotic areas of the tumors were removed and discarded. The 2×2 mm tumor tissue fragments were then placed in sterile, undiluted Matrigel and ice for 60 minutes prior to implantation. (Cancer Res. 55:4670-75, 1995).
At approximately 8 weeks of age female nu/nu mice were anesthetized with a mixture of ketamine/xylazine given by IM injection. Following establishment of satisfactory anesthesia, a left lateral laparotomy was performed using aseptic technique, and the spleen and pancreas exteriorized by gentle traction. Two of the 2×2 mm^2 tumor xenograft fragments prepared as described above were anchored to the posterior surface of the splenic portion of the pancreas of each mouse with a 6-0 Prolene suture (Cancer Res. 56:5713-19, 1996; J. Surg. Oncol. 40:261-265, 1989). The abdominal incision was closed with 6-0 Vicryl and the skin closed with skin staples. Mice were observed daily for any signs of infection of the incision line and, following removal of the skin staples, had abdominal palpation performed twice weekly. Establishment of the orthotopic phenotype with diffuse peritoneal spread was accomplished through three serial passes of tumor tissue.
Seven days following surgical implantation of serially passed PDAC tumor tissue, mice were randomized into five different treatment groups. Untreated mice (n=5) received no vehicle or drug treatments. […]

C[C@@]12OC(C[C@@]1(O)CO)n1c3ccccc3c3c4c(c5c6ccccc6n2c5c31)CNC4=O [formula (I-a-ii)]
survival relative to controls or monotherapy (Kaplan-Meier-Wilcoxon), in words: trend toward improved overall survival relative to administration of controls, but the trend was not significant
mean survival time (days of dosing to death): 63 days

Nc1ccn([C@@H]2O[C@H](CO)[C@@H](O)C2(F)F)c(=O)n1 [gemcitabine, 2′,2′-difluorodeoxycytidine]
survival relative to controls or monotherapy (Kaplan-Meier-Wilcoxon), in words: prolonged survival relative to the administration of controls
mean survival time (days of dosing to death): 97 days
